# Data published in patent publication US20180148418A1, “AMIDO-SUBSTITUTED CYCLOHEXANE DERIVATIVES” (Bayer Pharma Aktiengesellschaft, priority 2015, published 2018).
# Tests used:
# [1] = test system: wildtype Wnt signaling cascade; assay: HEK293 TOP assay (Super TopFlash luciferase reporter, Wnt-3a stimulated); assay type: cell-based; details: Homo sapiens, HEK293, 16 h, HEK293 TOP reporter cells, Wnt3a at EC50, 16 hours
# How it was run: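 HEK293 cells stably carrying Super TopFlash (TOP) run in parallel with FOP cells, 10000/well plated 24 h ahead, stimulated with recombinant human Wnt-3a. Compounds tested 50 μM to 15 nM in 3.16-fold steps in CAFTY buffer pH 7.4 with 2 mM Ca^2+ and 0.01% BSA; luciferase read-out.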
# TNKS2 = target: T1, TNKS2 (Homo sapiens, UniProt Q9H2K2); assay: TNKS2 Assay B (auto-parsylation, [3H]-NAD+ SPA); assay type: biochemical; details: 6 nM TNKS2, auto-parsylation, over night at room temperature
# T1 construct: purchased BPS Bioscience, San Diego, USA 80572 (TNKS2 Histone Ribosylation Assay Kit)
# T1 sequence (Q9H2K2 1-1166): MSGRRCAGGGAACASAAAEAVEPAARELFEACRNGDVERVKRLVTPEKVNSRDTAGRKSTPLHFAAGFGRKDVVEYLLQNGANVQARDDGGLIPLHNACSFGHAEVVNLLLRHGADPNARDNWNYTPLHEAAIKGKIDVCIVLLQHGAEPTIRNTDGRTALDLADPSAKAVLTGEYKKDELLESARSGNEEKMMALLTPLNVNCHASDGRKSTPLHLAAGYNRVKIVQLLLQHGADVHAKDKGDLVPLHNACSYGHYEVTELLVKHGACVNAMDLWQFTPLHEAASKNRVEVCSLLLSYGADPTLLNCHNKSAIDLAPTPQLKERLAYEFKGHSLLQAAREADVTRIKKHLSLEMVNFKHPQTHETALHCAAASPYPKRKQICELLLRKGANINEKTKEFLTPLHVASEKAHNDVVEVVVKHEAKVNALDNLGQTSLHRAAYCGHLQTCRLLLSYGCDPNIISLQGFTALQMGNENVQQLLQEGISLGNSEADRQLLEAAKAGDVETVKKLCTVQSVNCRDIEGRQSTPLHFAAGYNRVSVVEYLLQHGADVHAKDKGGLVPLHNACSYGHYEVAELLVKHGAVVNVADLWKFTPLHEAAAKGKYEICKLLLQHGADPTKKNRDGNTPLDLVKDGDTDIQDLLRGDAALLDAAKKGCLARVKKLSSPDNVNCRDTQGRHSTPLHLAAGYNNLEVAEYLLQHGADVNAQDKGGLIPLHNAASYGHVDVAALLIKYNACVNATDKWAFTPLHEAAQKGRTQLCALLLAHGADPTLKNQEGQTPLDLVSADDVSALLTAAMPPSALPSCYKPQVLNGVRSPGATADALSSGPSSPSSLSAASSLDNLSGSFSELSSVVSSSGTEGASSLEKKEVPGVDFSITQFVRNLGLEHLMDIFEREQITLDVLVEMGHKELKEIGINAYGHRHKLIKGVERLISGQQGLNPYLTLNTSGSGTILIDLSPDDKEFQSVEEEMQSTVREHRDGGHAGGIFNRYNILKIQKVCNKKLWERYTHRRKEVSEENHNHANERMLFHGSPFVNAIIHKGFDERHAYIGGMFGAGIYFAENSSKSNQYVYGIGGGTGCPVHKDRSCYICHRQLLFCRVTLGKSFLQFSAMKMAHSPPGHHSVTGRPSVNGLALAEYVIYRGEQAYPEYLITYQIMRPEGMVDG
Compound,IC50 [1],IC50 (TNKS2)
"CNC(=O)c1nc[nH]c1C(=O)N[C@H]1CC[C@H](C(=O)Nc2cc(C)c(F)cc2Cl)CC1 [Example 63, N^5-{trans-4-[(2-chloro-4-fluoro-5-methylphenyl)carbamoyl]cyclohexyl}-N^4-methyl-1H-imidazole-4,5-dicarboxamide]",54 nM,31 nM
"Cc1cc(NC(=O)[C@H]2CC[C@H](NC(=O)c3[nH]cnc3C(=O)NCC3CCCO3)CC2)c(Cl)cc1F (stereo partly drawn) [Example 64, N^5-{trans-4-[(2-chloro-4-fluoro-5-methylphenyl)carbamoyl]cyclohexyl}-N^4-(tetrahydrofuran-2-ylmethyl)-1H-imidazole-4,5-dicarboxamide]",740 nM,49 nM
"COCC(C)NC(=O)c1nc[nH]c1C(=O)N[C@H]1CC[C@H](C(=O)Nc2c(F)cc(F)cc2Cl)CC1 (stereo partly drawn) [Example 65, N^5-{trans-4-[(2-chloro-4,6-difluorophenyl)carbamoyl]cyclohexyl}-N^4-(1-methoxypropan-2-yl)-1H-imidazole-4,5-dicarboxamide]",230 nM,190 nM
"COC[C@H](C)NC(=O)c1nc[nH]c1C(=O)N[C@H]1CC[C@H](C(=O)Nc2c(F)cc(F)cc2Cl)CC1 [Example 66, N^5-{trans-4-[(2-chloro-4,6-difluorophenyl)carbamoyl]cyclohexyl}-N^4-[(2S)-1-methoxypropan-2-yl]-1H-imidazole-4,5-dicarboxamide]",250 nM,280 nM
"COC[C@@H](C)NC(=O)c1nc[nH]c1C(=O)N[C@H]1CC[C@H](C(=O)Nc2c(F)cc(F)cc2Cl)CC1 [Example 67, N^5-{trans-4-[(2-chloro-4,6-difluorophenyl)carbamoyl]cyclohexyl}-N^4-[(2R)-1-methoxypropan-2-yl]-1H-imidazole-4,5-dicarboxamide]",220 nM,280 nM
"COC(C)CNC(=O)c1nc[nH]c1C(=O)N[C@H]1CC[C@H](C(=O)Nc2c(F)cc(F)cc2Cl)CC1 (stereo partly drawn) [Example 68, N^5-{trans-4-[(2-chloro-4,6-difluorophenyl)carbamoyl]cyclohexyl}-N^4-(2-methoxypropyl)-1H-imidazole-4,5-dicarboxamide]",120 nM,79 nM
"O=C(NCC1CCCO1)c1nc[nH]c1C(=O)N[C@H]1CC[C@H](C(=O)Nc2c(F)cc(F)cc2Cl)CC1 (stereo partly drawn) [Example 69, N^5-{trans-4-[(2-chloro-4,6-difluorophenyl)carbamoyl]cyclohexyl}-N^4-(tetrahydrofuran-2-ylmethyl)-1H-imidazole-4,5-dicarboxamide]",170 nM,57 nM
"O=C(NC[C@H]1CCCO1)c1nc[nH]c1C(=O)N[C@H]1CC[C@H](C(=O)Nc2c(F)cc(F)cc2Cl)CC1 [Example 70, N^5-{trans-4-[(2-chloro-4,6-difluorophenyl)carbamoyl]cyclohexyl}-N^4-[(2R)-tetrahydrofuran-2-ylmethyl]-1H-imidazole-4,5-dicarboxamide]",220 nM,76 nM
"O=C(N[C@H]1CC[C@H](C(=O)Nc2ccc(F)cc2Cl)CC1)c1[nH]cnc1C(=O)N1CC(F)(F)C1 [Example 72, N-{trans-4-[(2-chloro-4-fluorophenyl)carbamoyl]cyclohexyl}-4-[(3,3-difluoroazetidin-1-yl)carbonyl]-1H-imidazole-5-carboxamide]",140 nM,26 nM
"COC(C)(C)CNC(=O)c1nc[nH]c1C(=O)N[C@H]1CC[C@H](C(=O)Nc2ccc(F)cc2Cl)CC1 [Example 73, N^5-{trans-4-[(2-chloro-4-fluorophenyl)carbamoyl]cyclohexyl}-N^4-(2-methoxy-2-methylpropyl)-1H-imidazole-4,5-dicarboxamide]",400 nM,190 nM
"O=C(NCCC1CC1)c1nc[nH]c1C(=O)N[C@H]1CC[C@H](C(=O)Nc2ccc(F)cc2Cl)CC1 [Example 74, N^5-{trans-4-[(2-chloro-4-fluorophenyl)carbamoyl]cyclohexyl}-N^4-(2-cyclopropylethyl)-1H-imidazole-4,5-dicarboxamide]",190 nM,73 nM
"CC(C)(O)CNC(=O)c1nc[nH]c1C(=O)N[C@H]1CC[C@H](C(=O)Nc2ccc(F)cc2Cl)CC1 [Example 75, N^5-{trans-4-[(2-chloro-4-fluorophenyl)carbamoyl]cyclohexyl}-N^4-(2-hydroxy-2-methylpropyl)-1H-imidazole-4,5-dicarboxamide]",370 nM,100 nM
"CC(C)OCCNC(=O)c1nc[nH]c1C(=O)N[C@H]1CC[C@H](C(=O)Nc2ccc(F)cc2Cl)CC1 [Example 76, N^5-{trans-4-[(2-chloro-4-fluorophenyl)carbamoyl]cyclohexyl}-N^4-(2-isopropoxyethyl)-1H-imidazole-4,5-dicarboxamide]",230 nM,78 nM
"CC(C)NCCNC(=O)c1nc[nH]c1C(=O)N[C@H]1CC[C@H](C(=O)Nc2ccc(F)cc2Cl)CC1 [Example 77, N^5-{trans-4-[(2-chloro-4-fluorophenyl)carbamoyl]cyclohexyl}-N^4-[2-(isopropylamino)ethyl]-1H-imidazole-4,5-dicarboxamide]",270 nM,60 nM
"O=C(NCC1CCCO1)c1nc[nH]c1C(=O)N[C@H]1CC[C@H](C(=O)Nc2ccc(F)cc2Cl)CC1 (stereo partly drawn) [Example 78, N^5-{trans-4-[(2-chloro-4-fluorophenyl)carbamoyl]cyclohexyl}-N^4-(tetrahydrofuran-2-ylmethyl)-1H-imidazole-4,5-dicarboxamide]",130 nM,89 nM
"O=C(NC[C@@H]1CCCO1)c1nc[nH]c1C(=O)N[C@H]1CC[C@H](C(=O)Nc2ccc(F)cc2Cl)CC1 [Example 79, N^5-{trans-4-[(2-chloro-4-fluorophenyl)carbamoyl]cyclohexyl}-N^4-[(2S)-tetrahydrofuran-2-ylmethyl]-1H-imidazole-4,5-dicarboxamide]",140 nM,100 nM
"O=C(NC[C@H]1CCCO1)c1nc[nH]c1C(=O)N[C@H]1CC[C@H](C(=O)Nc2ccc(F)cc2Cl)CC1 [Example 80, N^5-{trans-4-[(2-chloro-4-fluorophenyl)carbamoyl]cyclohexyl}-N^4-[(2R)-tetrahydrofuran-2-ylmethyl]-1H-imidazole-4,5-dicarboxamide]",90 nM,50 nM
"COC(C)CNC(=O)c1nc[nH]c1C(=O)N[C@H]1CC[C@H](C(=O)Nc2ccc(F)cc2Cl)CC1 (stereo partly drawn) [Example 81, N^5-{trans-4-[(2-chloro-4-fluorophenyl)carbamoyl]cyclohexyl}-N^4-(2-methoxypropyl)-1H-imidazole-4,5-dicarboxamide]",150 nM,72 nM
"COCC(C)NC(=O)c1nc[nH]c1C(=O)N[C@H]1CC[C@H](C(=O)Nc2ccc(F)cc2Cl)CC1 (stereo partly drawn) [Example 82, N^5-{trans-4-[(2-chloro-4-fluorophenyl)carbamoyl]cyclohexyl}-N^4-(1-methoxypropan-2-yl)-1H-imidazole-4,5-dicarboxamide]",380 nM,250 nM
"COC[C@H](C)NC(=O)c1nc[nH]c1C(=O)N[C@H]1CC[C@H](C(=O)Nc2ccc(F)cc2Cl)CC1 [Example 83, N^5-{trans-4-[(2-chloro-4-fluorophenyl)carbamoyl]cyclohexyl}-N^4-[(2S)-1-methoxypropan-2-yl]-1H-imidazole-4,5-dicarboxamide]",240 nM,270 nM
"COC[C@@H](C)NC(=O)c1nc[nH]c1C(=O)N[C@H]1CC[C@H](C(=O)Nc2ccc(F)cc2Cl)CC1 [Example 84, N^5-{trans-4-[(2-chloro-4-fluorophenyl)carbamoyl]cyclohexyl}-N^4-[(2R)-1-methoxypropan-2-yl]-1H-imidazole-4,5-dicarboxamide]",230 nM,230 nM
"COC(C)(C)CNC(=O)c1nc[nH]c1C(=O)N[C@H]1CC[C@H](C(=O)Nc2cc(F)c(F)cc2Cl)CC1 [Example 85, N^5-{trans-4-[(2-chloro-4,5-difluorophenyl)carbamoyl]cyclohexyl}-N^4-(2-methoxy-2-methylpropyl)-1H-imidazole-4,5-dicarboxamide]",130 nM,23 nM
